Data taken from patent US8470785B2, “Method for treating ocular cancer” (St. Jude Children's Research Hospital, priority 2006, dated 2013).
Read-outs that look alike come from different tables or passages of the source. One block for each compound: values may come before it. Ends that are not written are not given here.

Tests used:
HDM2 = HDM2 (Homo sapiens, UniProt Q00987); conditions: literature; cited from earlier work
Y79 cells = assay: Retinoblastoma cell viability, Y79 cells; type: cell-based, human; conditions: 72 hours, total racemic drug; read-out: LC50 (the source's name)
Text: These studies were extended to retinoblastoma cells. […] MDM2, p53 and p21 levels were induced in all cells except for the 911 cells in which p53 was inactivated by the large E1B protein.

Weril and Y79 cells = conditions: lentivirus control-infected cells
retinoblastoma cells = conditions: for p53 response: topotecan at LC50 for 1 hour, nutlin-3 treatment
[1] = tested on: p53^LSL MEFs null for Mdm2 and/or MdmX; assay: MTT growth/viability assay in p53^LSL MEFs
MDM2, p53 and p21 levels = assay: Immunoblot analysis of p53 pathway induction; conditions: 4 μM nutlin-3; Weril, Y79, primary retinoblasts; all cells except 911 cells
Mdm2^Lox/Lox MEFs = assay: Clonal analysis in Mdm2-deficient MEFs (Table 8)
[2] = tested on: SJRBL8 retinoblastoma cell line; assay: Retinoblastoma cell viability, p53-deficient SJRBL8 cells; conditions: 10 μM to 1 nM, 72 hours
[3] = cited from earlier work
[4] = target: MDM2 (amino acid residues 1-188) (Homo sapiens, UniProt Q00987); assay: Fluorescence polarization p53 peptide binding/competition assay, MDM2
Sequence of MDM2 (amino acid residues 1-188) (Q00987 1-188): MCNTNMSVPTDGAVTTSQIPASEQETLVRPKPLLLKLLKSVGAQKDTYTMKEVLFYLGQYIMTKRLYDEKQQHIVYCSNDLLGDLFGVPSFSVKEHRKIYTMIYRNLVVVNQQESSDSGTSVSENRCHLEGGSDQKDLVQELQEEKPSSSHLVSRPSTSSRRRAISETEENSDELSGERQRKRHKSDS

[5] = target: T1, MDMX (amino acid residues 1-185) (Homo sapiens, UniProt O15151); assay: Fluorescence polarization p53 peptide binding/competition assay, MDMX
T1 sequence (O15151 1-185): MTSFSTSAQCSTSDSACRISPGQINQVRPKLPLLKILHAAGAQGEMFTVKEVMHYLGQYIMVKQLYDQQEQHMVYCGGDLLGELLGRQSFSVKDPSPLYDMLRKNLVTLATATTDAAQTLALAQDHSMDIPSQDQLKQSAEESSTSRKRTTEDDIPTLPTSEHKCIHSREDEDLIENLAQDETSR

Sequence of HDM2 (Q00987 whole entry): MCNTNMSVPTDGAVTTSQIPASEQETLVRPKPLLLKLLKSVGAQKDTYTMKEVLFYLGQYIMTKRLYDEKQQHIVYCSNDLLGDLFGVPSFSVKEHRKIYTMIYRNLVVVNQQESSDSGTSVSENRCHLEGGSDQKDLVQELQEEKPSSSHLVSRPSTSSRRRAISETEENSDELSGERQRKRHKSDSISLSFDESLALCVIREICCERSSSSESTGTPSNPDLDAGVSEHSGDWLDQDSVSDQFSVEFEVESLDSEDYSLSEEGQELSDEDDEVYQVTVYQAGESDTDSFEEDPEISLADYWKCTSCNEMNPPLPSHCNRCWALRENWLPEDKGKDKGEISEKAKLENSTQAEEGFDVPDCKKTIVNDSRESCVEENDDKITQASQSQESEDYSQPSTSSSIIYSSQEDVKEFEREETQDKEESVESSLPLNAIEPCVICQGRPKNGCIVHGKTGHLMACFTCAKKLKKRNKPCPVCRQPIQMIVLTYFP

Compound: O=C(O)COc1ccc(C(=O)C=Cc2ccc(Cl)c(Cl)c2)cc1 [Trial B-1, {4-[3-(3,4-dichloro-phenyl)-acryloyl]-phenoxy}-acetic acid]
- affinity / inhibition of p53/HDM2 complex (HDM2): high micromolar affinity

Compound: COc1ccc(C2=N[C@@H](c3ccc(Cl)cc3)[C@@H](c3ccc(Cl)cc3)N2C(=O)N2CCNC(=O)C2)c(OC(C)C)c1 [nutlin-3]
- CC50 (Y79 cells): 2000 nM
- response to nutlin-3 with MDMX cDNA (Weril cells; Weril cells, MDMX cDNA): more resistant
- response to nutlin-3 with MDMX siRNA (Weril cells; Weril cells, MDMX siRNA): sensitized
- CC50 (Weril cells; read-out: LC50 (50% lethal concentration), 72 hours, total racemic drug): 700 nM
- CC50 (Weril cells; read-out: LC50, Weril cells transfected with control siRNA): 600 nM
- CC50 (Weril cells; read-out: LC50, Weril cells transfected with p53 siRNA): 10000 nM
- proliferation of control-infected cells (Weril and Y79 cells): inhibited the proliferation
- effect of nutlin-3 alone (retinoblastoma cells; 10 nM): ineffective alone
- p53 response (retinoblastoma cells): induced a p53 response
- sensitivity of MEFs to nutlin-3 ([1]; MdmX^+/− MEFs after Cre): sensitive
- sensitivity of MEFs to nutlin-3 ([1]; MdmX^−/− MEFs after Cre): insensitive
- MDM2, p53 and p21 levels (MDM2, p53 and p21 levels): induced
- MdmX rescue of the loss of Mdm2 in MEFs (Mdm2^Lox/Lox MEFs; 1.25 μM or 5 μM racemic nutlin-3): blocked
- number of cells per clone (Mdm2^Lox/Lox MEFs; GFP virus, 1.25 μM racemic nutlin-3, Day 2): 1.0 ± 0^
- number of cells per clone (Mdm2^Lox/Lox MEFs; GFP virus, 1.25 μM racemic nutlin-3, Day 3): 1.5 ± 0.4
- number of cells per clone (Mdm2^Lox/Lox MEFs; GFP virus, 1.25 μM racemic nutlin-3, Day 4): 2.1 ± 0.7
- number of cells per clone (Mdm2^Lox/Lox MEFs; GFP virus, 5.0 μM racemic nutlin-3, Day 2): 1.1 ± 0.2
- number of cells per clone (Mdm2^Lox/Lox MEFs; GFP virus, 5.0 μM racemic nutlin-3, Day 3): 1.5 ± 0.4
- number of cells per clone (Mdm2^Lox/Lox MEFs; Mdm2-GFP virus, 1.25 μM racemic nutlin-3, Day 2): 3.1 ± 1.5
- number of cells per clone (Mdm2^Lox/Lox MEFs; Mdm2-GFP virus, 1.25 μM racemic nutlin-3, Day 3): 6.6 ± 5.2
- number of cells per clone (Mdm2^Lox/Lox MEFs; Mdm2-GFP virus, 1.25 μM racemic nutlin-3, Day 4): 10.0 ± 7.4
- number of cells per clone (Mdm2^Lox/Lox MEFs; Mdm2-GFP virus, 1.25 μM racemic nutlin-3, Day 5): 12.9 ± 8.1
- number of cells per clone (Mdm2^Lox/Lox MEFs; Mdm2-GFP virus, 1.25 μM racemic nutlin-3, Day 6): 14.5 ± 9.3
- number of cells per clone (Mdm2^Lox/Lox MEFs; Mdm2-GFP virus, 5.0 μM racemic nutlin-3, Day 2): 3.0 ± 2.2
- number of cells per clone (Mdm2^Lox/Lox MEFs; Mdm2-GFP virus, 5.0 μM racemic nutlin-3, Day 3): 3.3 ± 1.4
- number of cells per clone (Mdm2^Lox/Lox MEFs; Mdm2-GFP virus, 5.0 μM racemic nutlin-3, Day 4): 3.9 ± 2.1
- number of cells per clone (Mdm2^Lox/Lox MEFs; Mdm2-GFP virus, 5.0 μM racemic nutlin-3, Day 5): 3.1 ± 1.7
- number of cells per clone (Mdm2^Lox/Lox MEFs; Mdm2-GFP virus, 5.0 μM racemic nutlin-3, Day 6): 2.8 ± 2.0
- number of cells per clone (Mdm2^Lox/Lox MEFs; MdmX-GFP virus, 1.25 μM racemic nutlin-3, Day 2): 1.1 ± 0.2
- number of cells per clone (Mdm2^Lox/Lox MEFs; MdmX-GFP virus, 1.25 μM racemic nutlin-3, Day 3): 1.9 ± 0.6
- number of cells per clone (Mdm2^Lox/Lox MEFs; MdmX-GFP virus, 1.25 μM racemic nutlin-3, Day 4): 2.8 ± 1.7
- number of cells per clone (Mdm2^Lox/Lox MEFs; MdmX-GFP virus, 1.25 μM racemic nutlin-3, Day 5): 3.4 ± 2.2
- number of cells per clone (Mdm2^Lox/Lox MEFs; MdmX-GFP virus, 1.25 μM racemic nutlin-3, Day 6): 2.1 ± 1.9
- number of cells per clone (Mdm2^Lox/Lox MEFs; MdmX-GFP virus, 5.0 μM racemic nutlin-3, Day 2): 1.2 ± 0.4
- number of cells per clone (Mdm2^Lox/Lox MEFs; MdmX-GFP virus, 5.0 μM racemic nutlin-3, Day 3): 1.1 ± 0.1
- number of cells per clone (Mdm2^Lox/Lox MEFs; MdmX-GFP virus, 5.0 μM racemic nutlin-3, Day 4): 1.3 ± 0.2
- number of cells per clone (Mdm2^Lox/Lox MEFs; MdmX-GFP virus, 5.0 μM racemic nutlin-3, Day 5): 1.0 ± 0^
- viability [2]: no decrease in viability at any concentration tested

Compound: COc1ccc(C2=N[C@@H](c3ccc(Cl)cc3)[C@@H](c3ccc(Cl)cc3)N2C(=O)N2CCNC(=O)C2)c(OC(C)C)c1 [nutlin-3a]
- penetration into the vitreous ([3]; oral and intravenous formulations): poor penetration into the vitreous

Compound: CC[C@@]1(O)C(=O)OCc2c1cc1n(c2=O)Cc2cc3c(CN(C)C)c(O)ccc3nc2-1 [topotecan, Topotecan]
- p53 response (retinoblastoma cells): induced a p53 response
- intraocular penetration ([3]; systemic administration, murine models of retinoblastoma): good intraocular penetration

Compound: FMDYWEGL [SEQ ID NO:4]
- affinity / inhibition of p53/HDM2 complex (HDM2): micromolar affinity

Compound: MPRFMDYWEGLN [SEQ ID NO:2]
- affinity / inhibition of p53/HDM2 complex (HDM2): sub-micromolar affinity
- fold increase in potency compared to wild-type p53-derived peptide (SEQ ID NO:3) (HDM2): 28 fold

- MDM2 binding [4]: no MDM2 or MDMX binding
- MDMX binding [5]: no MDM2 or MDMX binding
Compound: NH2-Gly-Ser-Gly-Ser-Ser-Gln-Glu-Thr-Ala-Ser-Asp-Leu-Ala-Lys-Leu-Ala-Pro-Glu-Asn-OH (H-GSGSSQETASDLAKLAPEN-OH) [p53 mutant]

Compound: chlorofusin
- affinity / inhibition of p53/HDM2 complex (HDM2): micromolar inhibitor
